In US6391305B1, “Conjugates useful in the treatment of prostate cancer” (priority 1999, dated 2002):
Like-named read-outs stand apart in the source and are kept apart here. Non-standard residues stand in square brackets, D forms with d. Residues, ends and D or L forms follow the SMILES beside them. *: point of attachment. Doxorubicin(3'-N) = COc1cccc2c1C(=O)c1c(O)c3c(c(O)c1C2=O)C[C@@](O)(C(=O)CO)C[C@@H]3O[C@H]1C[C@H](N*)[C@H](O)[C@H](C)O1; Dox = doxorubicin, linked through its 3'-amine to the C-terminal carbonyl; Decanoyl(3,6,9-trioxa) = COCCOCCOCC(=O)*; hArg = N=C(N)NCCCC[C@H](N)C(=O)O; Chg = N[C@H](C(=O)O)C1CCCCC1

Experiments:
[1] = Solubility remarks (INSOLUBLE, PS, PP) printed beside the assay results of Tables 2-4; type: physicochemical; conditions: DOX conjugate in cytotoxicity test
[2] = target: T1, enzymatically active free PSA (Homo sapiens, UniProt P07288); experiment: Recognition (cleavage) of oligopeptide-doxorubicin conjugates by free PSA, HPLC; type: biochemical; conditions: DOX conjugate; for Time to 50% Substrate Cleavage by York PSA: PSA digestion buffer pH7.4, 140 mM NaCl, molar ratio to PSA 100 to 1
T1 construct: required for 50% cleavage of the noted oligopeptides with enzymatically active free PSA
T1 sequence (P07288 25-261): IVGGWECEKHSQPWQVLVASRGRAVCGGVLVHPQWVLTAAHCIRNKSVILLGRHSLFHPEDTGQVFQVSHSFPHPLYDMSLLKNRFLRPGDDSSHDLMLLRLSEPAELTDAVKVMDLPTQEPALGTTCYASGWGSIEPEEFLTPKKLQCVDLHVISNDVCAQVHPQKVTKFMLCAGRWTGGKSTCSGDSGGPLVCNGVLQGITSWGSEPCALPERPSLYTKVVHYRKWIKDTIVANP
Procedure: If no salt is indicated for the conjugate, the free conjugate was tested.

[3] = tested on: LNCap prostate tumor cells; experiment: In vitro cytotoxicity, Alamar Blue assay, LNCaP; type: cell-based; conditions: 72 HRS, read-out: LNCaP Cell Kill in 72 HRS, {48 HRS} EC 50
Procedure: (§1) The cytotoxicities of the cleaveable oligopeptide-doxorubicin conjugates, prepared as described in Examples 3-6, against a line of cells which is known to be killed by unmodified doxorubicin was assessed with an Alamar Blue assay. Specifically, cell cultures of LNCap prostate tumor cells or DuPRO cells in 96 well plates was diluted with medium containing various concentrations of a given conjugate (final plate well volume of 200 μl ). The cells were incubated for 3 days at 37° C., 20 μl of Alamar Blue is added to the assay well. The cells were further incubated and the assay plates were read on a EL-310 ELISA reader at the dual wavelengths of 570 and 600 nm at 4 and 7 hours after addition of Alamar Blue. Relative percentage viability at the various concentration of conjugate tested was then calculated versus control (no conjugate) cultures. If no salt is indicated, the free conjugate was tested.

[4] = tested on: DuPRO cells; experiment: In vitro cytotoxicity, Alamar Blue assay, DuPRO; type: cell-based; conditions: value in parentheses beside the LNCaP value, read-out: DuPRO cell kill EC 50
Procedure: as §1

[5] = listed as PEG(2)-ShRYQ-SL-DOX(3′)

Molecule | Solubility remark in Table 4 [1] | Substrate cleavage by York PSA at 4 HOUR ([2]; 4 hours) | EC50 [3] | Time to 50% Substrate Cleavage by York PSA [2] | EC50 [4] | EC50 [3, 5] | EC50 [4, 5]
COCCOCCOCC(=O)N[C@@H](CCCCNC(=N)N)C(=O)N[C@H](C(=O)N[C@@H](CCC(N)=O)C(=O)N[C@@H](CO)C(=O)N[C@@H](CC(C)C)C(=O)N[C@H]1C[C@H](O[C@H]2C[C@](O)(C(=O)CO)Cc3c(O)c4c(c(O)c32)C(=O)c2c(OC)cccc2C4=O)O[C@@H](C)[C@H]1O)C1CCCCC1 [PEG(2)-HomoRChgQ-SL-DOX (3′), PEG(2)-hArgChgGln-SerLeu-DOX (3′)] ({Decanoyl(3,6,9-trioxa)}-[hArg][Chg]QSL-{Doxorubicin(3'-N)}) | INSOLUBLE | 12% | – | – | – | – | –
COCCOCCOCC(=O)N[C@@H](CCCCNC(=N)N)C(=O)N[C@@H](CO)C(=O)N[C@@H](CO)C(=O)N[C@H](C(=O)N[C@@H](CCC(N)=O)C(=O)N[C@@H](CO)C(=O)N[C@@H](CC(C)C)C(=O)N[C@H]1C[C@H](O[C@H]2C[C@](O)(C(=O)CO)Cc3c(O)c4c(c(O)c32)C(=O)c2c(OC)cccc2C4=O)O[C@@H](C)[C@H]1O)C1CCCCC1 [PEG(2)-HomoRSSChgQ-SL-DOX (3′), PEG(2)-hArgSerSerChgGln-SerLeu-DOX (3′)] ({Decanoyl(3,6,9-trioxa)}-[hArg]SS[Chg]QSL-{Doxorubicin(3'-N)}) | – | – | 5.7 µM | 11 min | > 100 µM | – | –
COCCOCCOCC(=O)N[C@@H](CO)C(=O)N[C@@H](CCCCNC(=N)N)C(=O)N[C@H](C(=O)N[C@@H](CCC(N)=O)C(=O)N[C@@H](CO)C(=O)N[C@@H](CC(C)C)C(=O)N[C@H]1C[C@H](O[C@H]2C[C@](O)(C(=O)CO)Cc3c(O)c4c(c(O)c32)C(=O)c2c(OC)cccc2C4=O)O[C@@H](C)[C@H]1O)C1CCCCC1 [PEG(2)-SHomoRChgQ-SL-DOX (3′), PEG(2)-SerhArgChgGln-SerLeu-DOX (3′)] ({Decanoyl(3,6,9-trioxa)}-S[hArg][Chg]QSL-{Doxorubicin(3'-N)}) | – | – | 8.1 µM | 25 min | > 100 µM | – | –
COCCOCCOCC(=O)N[C@@H](CO)C(=O)N[C@@H](CCCCNC(=N)N)C(=O)N[C@@H](Cc1ccc(O)cc1)C(=O)N[C@@H](CCC(N)=O)C(=O)N[C@@H](CO)C(=O)N[C@@H](CC(C)C)C(=O)N[C@H]1C[C@H](O[C@H]2C[C@](O)(C(=O)CO)Cc3c(O)c4c(c(O)c32)C(=O)c2c(OC)cccc2C4=O)O[C@@H](C)[C@H]1O [PEG(2)-SHomoRYQ-SL-DOX(3′), PEG(2)-SerhArgTyrGln-SerLeu-DOX(3′)] ({Decanoyl(3,6,9-trioxa)}-S[hArg]YQSL-{Doxorubicin(3'-N)}) | – | – | – | 35 min | – | 4.5 µM | > 100 µM
COCCOCCOCC(=O)N[C@@H](CO)C(=O)N[C@@H](CO)C(=O)N[C@H](C(=O)N[C@@H](CCC(N)=O)C(=O)N[C@@H](CO)C(=O)N[C@@H](CC(C)C)C(=O)N[C@H]1C[C@H](O[C@H]2C[C@](O)(C(=O)CO)Cc3c(O)c4c(c(O)c32)C(=O)c2c(OC)cccc2C4=O)O[C@@H](C)[C@H]1O)C1CCCCC1 [PEG(2)SSChgQ-SL-DOX (3′), PEG(2)SerSerChgGln-SerLeu-DOX (3′)] ({Decanoyl(3,6,9-trioxa)}-SS[Chg]QSL-{Doxorubicin(3'-N)}) | – | – | 8.8 µM | 90 min | > 100 µM | – | –
N-[2-{2-(2-methoxyethoxy)ethoxy}acetyl]-Ser-Ser-Ser-Chg-Gln-Ser-Leu-Dox ({Decanoyl(3,6,9-trioxa)}-SSS[Chg]QSL-Dox) [PEG(2)-SSSChgQ-SL-DOX (3′)] | – | – | 10 µM | 60 min | > 100 µM | – | –
